For assay [1], the system named is HCT-116 human colon carcinoma cells. As to the kind of experiment: Viability assay (LDH release), HCT-116. The format is cell-based. The conditions noted are these: for viability at 200 µg/mL: HCT-116, 48 h, read-out: Mean % of viable cells ± SD, HCT-116. An outline of the steps: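 HCT-116 human colon carcinoma cells were cultured for 24 h at 37 °C in a humidified 5% CO2 incubator. Samples diluted in Dulbecco’s Modified Eagle’s Medium with 10% FBS were then added. Lactate dehydrogenase released from damaged cells was measured in supernatants by ELISA end-point reading at 550 nm. Controls were 0.1% Triton X-100 (positive) and assay medium alone (negative).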

Assay [2] deals with purified recombinant human LDHA protein (Homo sapiens, UniProt P00338). The experiment in a line: Lactate dehydrogenase A (LDHA) inhibitory assay. The class given is biochemical. Conditions: for Fold change of LDHA inhibition as compared to 0.1 mg/mL: % inhibition at 0.200 mg/mL divided by % inhibition at 0.100 mg/mL; for inhibition at 100 µg/mL: at 0.1 mg/mL; for inhibition at 100 µg/mL / inhibition at 200 µg/mL: read-out: LDHA mean % inhibition ± SD; for inhibition at 200 µg/mL: at 0.2 mg/mL. The method, then:
The LDHA inhibitory effectiveness was investigated by measuring the amounts of consumed NADH [73]. […] The fluorescence of NADH, which has an excitation wavelength of 340 nm and an emission wavelength of 460 nm, was detected using a spectrofluorometer. […] The LDHA inhibitory efficiency was expressed as an inhibition percentage, which was determined via a comparison with the negative control experiments.

The test system of assay [3] is LoVo human colon carcinoma cells. The experiment in a line: Viability assay (LDH release), LoVo. The class given is cell-based. The conditions noted are these: for viability at 200 µg/mL: 48 h, read-out: Mean % of viable cells ± SD, LoVo; for IC50: from concentration–response curves. An outline of the steps:
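LoVo human colon carcinoma cells were grown for 24 h at 37 °C in a humidified 5% CO2 incubator in Dulbecco's Modified Eagle's Medium containing 10% FBS, then exposed to test samples for 48 h. Lactate dehydrogenase released into the supernatant was measured by ELISA end-point assay at 550 nm, using 0.1% Triton X-100 as positive control and medium alone as negative control. Viability was reported as mean % ± SD (n = 3) and compared against HUVEC cells.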
In general terms: LDH leaks from cells whose membrane has failed.

For a further assay, the system named is caspase-9. The experiment in a line: Western blot of caspase-9 in cell lysates. The format is cell-based, human. The conditions noted are these: 50 µg/mL, 48 h. The method, then: Furthermore, in order to confirm the implication of these compounds in the apoptotic pathways trigged by caspases, the proteins levels of caspases 8 and 9 were evaluated using Western blot analysis for the HCT-116 and LoVo carcinoma cells lysates after treatment with compounds 3a and 3f (50 µg/mL for 48 h); the untreated cells were used as a negative control.
In order to determine the levels of production of caspases 8 and 9 by the treated carcinoma cells, Western blot analysis was carried out using a FLAG® Western Detection Kit (Agilent Technologies, USA). Exponentially growing HCT-116 and LoVo cells were treated with 50 µg/mL of derivatives 3a and 3f for 48 h. After incubation, the cells were harvested and lysed using a Lysis buffer consisting of 10 mM of Tris, 100 mM of NaCl, 25 mM of ethylenediaminetetra aceticacid (EDTA), 25 mM of Ethylene glycol bis(2-aminoethyl)tetraacetic acid (EGTA), 0.1% Sodium dodecyl sulfate (SDS), 1% (v/v) Triton X-100 and 2% (v/v) NP-40 (pH 7.4), with a 1:200 protease inhibitor cocktail (Sigma-Adrich) and a 1:300 phosphatase inhibitor cocktail tablet (Roche Applied Science, Mannheim, Germany). The protein concentrations of each sample were determined calorimetrically using the Bradford method before proceeding to carry out the Western blotting. Equal amounts (20 µg) of the protein samples were mixed and boiled with SDS Loading buffer for 10 min, allowed to cool on ice and then loaded into SDS-polyacrylamide gel and separated using a Cleaver electrophoresis unit (Cleaver, Warwickshire, UK), before being transferred onto polyvinylidene fluoride (PVDF) membranes (Bio-Rad, USA) for 30 min using a Semi-dry Electroblotter (Biorad, USA) at 2.5 A and 25 V for 30 min. The membrane was blocked with 5% nonfat dry milk in TBS-T for two hours at room temperature, in order to reduce non-specific protein interactions between the membrane and the antibody. The blocked membrane was incubated overnight at 4 °C with primary antibodies (Cell Signaling Technology, Massachusetts, USA) and β-actin (Sigma). […] Briefly, the membranes were incubated for 1 min with a mixture of equal volumes of ECL solution A and ECL solution B. The chemiluminescent signals were captured using a CCD camera-based imager (Chemi Doc imager, Biorad, USA), and the bands’ intensities were then measured using ImageLab v3.0 (Bio-Rad). […] The proteins were detected using an enhanced chemiluminescence (ECL) detection system (Thermo Fischer Scientific, USA). The intensities of the bands were quantified using the NIH ImageJ software v3.0.1 (http://rsb.info.nih.gov/ij/).
(Immunoblotting shows a protein as a band on a membrane.)

The mark [4] stands for this setting: Homo sapiens, HCT-116, from concentration–response curves.
The mark [5] stands for this setting: from concentration–response curves.

“And” between values parts separate entries of the source, which are not always exact repeats. Equal entries are not always repeated.

A word on the IC50: it is the concentration that inhibits the measured activity by half. In general, inhibition refers to the relative decrease from the control value, in per cent. As for `O=c1c2cc(Cl)ccc2[nH]c(=S)n1-c1cccc(C(F)(F)F)c1` [Compound 3a, 6-Chloro-2-thioxo-3-(3-trifluoromethyl-phenyl)-2,3-dihydro-1H-quinazolin-4-one], the viability at 200 µg/mL turned out to be 26.8 ± 1.26% in assay [1] (Homo sapiens) and 23.5 ± 1.5% in assay [3] (Homo sapiens, LoVo). Moreover, the IC50 in assay [1] (setting [4]) was 298 µM and 106 µg/mL; in assay [1] (setting [5]) it was 298 µM; in assay [2] (mean ± SD of three replicates), 273 µM; in assay [3] (Homo sapiens, LoVo), 294 µM and 105 µg/mL; in assay [3], 294 µM. Also, the “Fold change of LDHA inhibition as compared to 0.1 mg/mL” value in assay [2] is 1.84 fold. In addition, the inhibition at 100 µg/mL in assay [2] stood at 53.5 ± 1.13%. In addition, in assay [2], the inhibition at 200 µg/mL was found to be 98.5 ± 1.34%. Besides, the “Increase in expression level of caspase-9” value was determined as 3.6 times in the assay on caspase-9 (lysates of HCT-116) and 7.2 times in the assay on caspase-9 (lysates of LoVo).
As for `O=c1c2cc(Cl)ccc2[nH]c(=S)n1-c1ccc([N+](=O)[O-])cc1` [Compound 3f, 6-Chloro-3-(4-nitro-phenyl)-2-thioxo-2,3-dihydro-1H-quinazolin-4-one], the viability at 200 µg/mL stood at 4.67 ± 0.577% in assay [1] (Homo sapiens) and 22.7 ± 2.08% in assay [3] (Homo sapiens, LoVo). The IC50 is 324 µM and 108 µg/mL in assay [1] (setting [4]); 324 µM in assay [1] (setting [5]); 384 µM and 128 µg/mL in assay [3] (Homo sapiens, LoVo); 384 µM in assay [3]. Also, the “Fold change of LDHA inhibition as compared to 0.1 mg/mL” value in assay [2] is on record as 1.59 fold. Besides, the inhibition at 100 µg/mL in assay [2] came to 21.5 ± 1.56%. In assay [2], the inhibition at 200 µg/mL amounted to 34.2 ± 1.77%. Also, the figures for the “Increase in expression level of caspase-9” value in the assay with caspase-9 (lysates of HCT-116) and in the assay on caspase-9 (lysates of LoVo) were 3.1 times and 4.8 times, respectively.

Values taken from PMC10610505, “Synthesis and Biological Evaluation of Some New 3-Aryl-2-thioxo-2,3-dihydroquinazolin-4(1H)-ones and 3-Aryl-2-(benzylthio)quinazolin-4(3H)-ones as Antioxidants; COX-2, LDHA, α-Glucosidase and α-Amylase Inhibitors; and Anti-Colon Carcinoma and Apoptosis-Inducing Agents” (Pharmaceuticals, 2023).
